Measured values from PubChem BioAssay AID179 (DTP/NCI, 2004).
Calls of active or inactive are those of the source.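 The calls were made as follows: active = compounds giving half or more protection of infected cells from virus-caused growth loss, again on retest; inactive = the rest.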 Where a SMILES comes first, the peptide text is derived from it.

Tested on: CEM cells HIV-1 protection, formazan growth assay
Assay: NCI AIDS Antiviral Assay
Conditions: for IC50: measured here: growth of uninfected CEM cells
Method in brief: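 Five concentrations of each compound were applied to infected and uninfected human CEM cells. Protection from HIV-1 was judged from growth measured with a soluble formazan assay.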

| SMILES | EC50 [µM] | IC50 [µM] | outcome |
| --- | --- | --- | --- |
| O/N=C(/C(Cl)=C(Cl)Cl)C(Cl)Cl | > 200 | 33.1 |  |
| O=S(=O)(c1ccccc1)C1(Sc2ccccc2)CC=CC1 | > 81.3 | 51.3 |  |
| CC(=O)Oc1cccc2c1[nH]c(=O)c1c(OC(C)=O)c3c(cc12)OCO3 |  |  | inactive |
| O=C(CCC(=O)Nc1ccc(Cl)cc1)CC(=O)c1ccc(F)cc1 |  |  | inactive |
| CC(=O)[O-].O=C([N-]/N=C\c1ccsc1)c1ccncc1.[Ni+2].[OH3+].c1cnc2c(c1)ccc1cccnc12 | > 200 | 47.9 |  |
| O=C(/C=C/c1ccc(O)c(O)c1)OCCOC(=O)/C=C/c1ccc(O)c(O)c1 | > 200 | 10 |  |
| COc1ccc(C(O)C/[N+]([O-])=C/c2ncc([N+](=O)[O-])n2C)cc1 (centres undefined) |  |  | inactive |
| NP(=O)(OCC1=CC(=O)c2ccccc2C1=O)N(CCBr)CCBr (centres undefined) |  |  | inactive |
| Cc1c(CCN=P(c2ccccc2)(c2ccccc2)c2ccccc2)c(=O)n2c([nH]c3ccccc32)c1C#N | > 200 | 31.6 |  |
| Cc1ccc(C(=O)N(C2CCCCC2)C2CCCCC2)cc1N=NN(C)C | > 19.5 | > 19.5 |  |
| COc1ccc(N=Nc2c(C)c(C#N)c(=S)n(C3OC(COC(C)=O)C(OC(C)=O)C(OC(C)=O)C3OC(C)=O)c2C)cc1 (centres undefined) | > 200 | > 200 |  |
| Cc1ccc(C2(O)CC(c3ccc([N+](=O)[O-])o3)=NN2C(=O)COc2ccccc2Cl)cc1 (centres undefined) | > 1.66 | > 1.66 |  |
| COc1cc(Br)c(CCC#N)cc1OC | > 347 | 37.2 |  |
| NC(=O)c1ccc([Se][Se]c2ccc(C(N)=O)cc2)cc1 | > 13.2 | 6.92 |  |
| Clc1ccc(OCc2nc3ccccc3[nH]2)cc1 | > 200 | 162 |  |
| CC(C)(C)OC(=O)N(CCCCNCc1ccc2ccccc2c1)CCCNCc1ccc2ccccc2c1 | > 2 | 1.05 |  |
| NC(=O)C1CCCN1C(=O)C(Cc1cnc[nH]1)NC(=O)C1CCCC1 (centres undefined) | > 200 | > 200 |  |
| Cc1ccc(-c2c3nc(c(-c4ccc(C)cc4)c4ccc([nH]4)c(-c4ccc(C)cc4)c4nc(c(-c5ccncc5)c5ccc2[nH]5)C=C4)C=C3)cc1.Cc1ccc(-c2c3nc(c(-c4ccc(C)cc4)c4ccc([nH]4)c(-c4ccc(C)cc4)c4nc(c(-c5ccncc5)c5ccc2[nH]5)C=C4)C=C3)cc1.Cc1ccc(-c2c3nc(c(-c4ccc(C)cc4)c4ccc([nH]4)c(-c4ccc(C)cc4)c4nc(c(-c5ccncc5)c5ccc2[nH]5)C=C4)C=C3)cc1.Cc1ccc(-c2c3nc(c(-c4ccc(C)cc4)c4ccc([nH]4)c(-c4ccc(C)cc4)c4nc(c(-c5ccncc5)c5ccc2[nH]5)C=C4)C=C3)cc1.O=S(=O)([O-])C(F)(F)F.[Pt] | > 25.1 | 14.1 |  |
| NNC(=O)CC(=O)Nc1ccc(S(=O)(=O)c2ccc(NC(=O)CC(=O)NN)cc2)cc1 | > 200 | > 200 |  |
| CC12CCC(O)CC1=CCC1C2CCC2(C)C3=NN=CC3CC12 (centres undefined) | > 200 | 12 |  |
| COC1OC(C(C)O)C2OC(C)(C)OC12 (centres undefined) | > 200 | > 200 |  |

| SMILES | EC50 [µM] | IC50 [µM] | outcome |
| --- | --- | --- | --- |
| CN1CCN(C)c2nc3ccccc3nc21 | 15.1 | 87.1 |  |
| COc1ccc(/C=C2\NC(=S)NC2=O)cc1 | > 200 | 151 |  |
| COCOc1cc(OCOC)cc(C(=O)Oc2ccccc2)c1 | > 200 | > 200 |  |
| O=[N+]([O-])C(=C(NCc1ccccc1)NCc1ccccc1)C(Cl)=C(Cl)Cl | > 200 | 35.5 |  |
| CCOC(=O)NC(=O)c1cn(CCCCCCCCCCC(=O)N2CCN(CCn3cc(C(=O)NC(=O)OCC)c(=O)[nH]c3=O)CC2)c(=O)[nH]c1=O |  |  | inactive |
| CC(O)CNC(=O)C(C)Oc1ccc(OCC2CCCCC2)cc1 (centres undefined) | > 282 | 25.1 |  |
| C[S+](C)c1ccccc1 | > 1050 | 457 |  |
| CC12CCC(=O)N1c1ccc(Cl)cc1N2 (centres undefined) | > 115 | > 115 |  |
| Nc1ncnc2c1ncn2C1CC(OC2CCCCO2)C(CO)O1 (centres undefined) | > 200 | > 200 |  |
| COc1ccc(Oc2cc(CC3c4cc(OC)c(OC)cc4CCN3C)c([N+](=O)[O-])cc2OC)cc1OC (centres undefined) |  |  | inactive |
| c1ccc2c(c1)cc1n2CCc2c-1[nH]c1ccccc21 | > 200 | > 200 |  |
| O=C(O)c1cc(Cc2cc(C(=O)O)c(O)c(C(=O)c3ccc(O)c(C(=O)O)c3)c2)ccc1O | 537 | 832 |  |
| COc1ccc2[nH]c3cc4c(=O)c5cc(OC)ccc5[nH]c4cc3c(=O)c2c1 | > 72.4 | > 72.4 |  |
| Cc1cccc(NP2(Nc3cccc(C)c3)=NP(Nc3cccc(C)c3)(Nc3cccc(C)c3)=NP(Nc3cccc(C)c3)(Nc3cccc(C)c3)=NP(Nc3cccc(C)c3)(Nc3cccc(C)c3)=N2)c1 | > 200 | > 200 |  |
| COC(=O)[C@H]1C2c3ccccc3-c3ccccc3C2(OC(C)=O)[C@@]1(Cl)C(=O)OC (some centres undefined) | > 43.7 | 6.31 |  |
| COc1ccc(-c2csc(=Nc3ccccc3)n2CCCN(C)C)cc1 | > 200 | 16.2 |  |
| CCC(CC)(CC(=O)O)CC(=O)O |  |  | inactive |
| CCCCCC=C(c1cc(C)c(OC)c(Br)c1)c1cc(C)c(OC)c(Br)c1 | > 200 | 15.5 |  |
| O=c1c2cc(Br)ccc2nc(-c2ccccc2Cl)n1NCC1(O)OCC(O)C(O)C1O (centres undefined) |  |  | inactive |
| COC(=O)C(=O)C(C(=O)C(=O)Nc1ccc(C)cc1C)c1nc2ccc(Cl)cc2[nH]c1=O (centres undefined) | > 57.5 | 47.9 |  |
| Cn1cnc([N+](=O)[O-])c1Sc1ncnc2nc[nH]c12 | > 200 | 10.7 |  |

| SMILES | EC50 [µM] | IC50 [µM] | outcome |
| --- | --- | --- | --- |
| Cc1ccc2nc(-c3ccccc3Cl)[nH]c2c1 | 14.8 | 29.5 |  |
| CCOC(=O)NC(=S)NC(C)c1ccccc1 (centres undefined) | > 200 | 115 |  |
| C#CCCOC1(OC)N=NC(C)(C)O1 (centres undefined) | > 200 | > 200 |  |
| COc1ccc2cc1Oc1ccc(cc1)C[C@H]1c3cc(c(OC)cc3CCN1C)Oc1c(O)c(OC)cc3c1[C@H](C2)N(C)CC3 |  |  | inactive |
| COc1nc2c(c(=O)[nH]1)N=C(c1ccccc1)CC(c1ccccc1)N2 (centres undefined) | > 200 | > 200 |  |
| Nc1c(Cl)ncnc1NCCCNc1ncnc(Cl)c1N |  |  | inactive |
| CCCCCCCCCCCCCCCc1cc(O)ccc1N=O | > 200 | 2.57 |  |
| Cc1cc(N(CCC#N)CCC#N)ccc1/C(N=Nc1ccc(C(=O)O)cc1)=N\NC(=O)c1cc(Cl)ccc1O | > 200 | 112 |  |
| CCN(CC)c1c(C)nnc2c3c(-c4ccccc4)c(-c4ccccc4)nnc3nn12 | > 200 | > 200 |  |
| O=C(c1ccccc1)[C@@]12COc3ccccc3[C@@H]1ON=C2c1ccccc1 | > 10.7 | > 10.7 |  |
| CN(C)P(=O)(N(C)C)N(C)C.[CH3][Sn]([CH3])([Cl])[Cl] |  |  | inactive |
| COc1cc(C(=O)CC2(O)C(=O)Nc3c(Cl)cc(Cl)cc32)ccc1O (centres undefined) | > 468 | 91.2 |  |
| Cc1cc2c(cc1C)[n+](=O)c(C(=O)CC(=O)C(=O)Nc1ccccc1C(C)C)c(C)n2[O-] | > 575 | > 575 |  |
| C#CCN(C)Cc1ccccc1 | > 200 | > 200 |  |
| COc1cc(/C=N/N=C(\N)NO)cc(OC)c1OC | > 200 | 105 |  |
| CC(C)CC(=O)NC(Nc1ccc(S(=O)(=O)Nc2ncccn2)cc1)(C(F)(F)F)C(F)(F)F | > 200 | > 200 |  |
| COC(=O)C1=C(C(=O)OC)SC(=C(N=Nc2ccccc2)c2ccccc2)S1 |  |  | inactive |
| CN=C1N[N+]2=CCSCC2(C)S1 (centres undefined) |  |  | inactive |
| COC(=O)c1cc(C(=CCCCCBr)c2cc(Cl)c(OC)c(C(=O)OC)c2)cc(Cl)c1OC | 45.7 | 151 |  |
| N/C(=N\N=C\c1cccs1)NO | > 708 | > 708 |  |
| Cc1cc2nn(C3CCCCO3)nc2cc1C (centres undefined) | > 200 | > 200 |  |

| SMILES | EC50 [µM] | IC50 [µM] | outcome |
| --- | --- | --- | --- |
| CC(C)N(C(=O)C12C3C4C1C1C2C3C41C(=O)C(C)(C)C)C(C)C (centres undefined) | > 158 | 138 |  |
| O=c1[nH]c(=O)c2[nH]c(Cl)nc2[nH]1 | > 28.2 | > 28.2 |  |
| CCOC(=O)C(C)(NC(=O)c1ccc(NCc2ccc3nc(NC(=O)c4ccccc4)nc(NC(=O)c4ccccc4)c3c2)cc1)C(=O)OCC | > 50.1 | 32.4 |  |
| c1ccc2[nH]c(-c3cscn3)nc2c1 | > 200 | > 200 |  |
| CC(C)C(NC(=O)C(N)CCC(=O)O)C(=O)O (stereo not drawn) (H-Glu-Val-OH; configuration not given here) |  |  | inactive |
| O=c1[nH]c2cc(F)c(F)cc2nc1Cc1ccccc1 | > 200 | 132 |  |
| c1ccc(C2=NOC3(c4ccccc4)SC4CCCCC4CN23)cc1 (centres undefined) | > 10.7 | > 10.7 |  |
| COc1ccc(NC(=S)/C(=C(/[O-])c2ccc(C)cc2)[n+]2ccccc2)cc1 |  |  | inactive |
| CCOC(=O)c1cc2cc3c4c(c2oc1=O)CCCN4CCC3 | > 115 | > 115 |  |
| C=CCO[C@H]1CC[C@@]2(C)C(CC[C@]3(C)C2CC=C2[C@@H]4[C@@H](C)C(C)CC[C@]4(C(=O)O)CCC23C)C1(C)C (some centres undefined) |  |  | inactive |
| COCCCNC1=C(C#N)C(=O)NC2(CCCC2)S1 | > 525 | > 525 |  |
| Cn1cnc([N+](=O)[O-])c1Sc1nc2ccccc2s1 | > 24.5 | 3.24 |  |
| CC(=O)Nc1ccc(/C=C(\C#N)c2ccccc2)cc1 | > 200 | > 200 |  |
| C(=C\c1cc(CCc2nc3ccccc3[nH]2)[nH]n1)/c1ccccc1 | > 83.2 | > 83.2 |  |
| CC(C)(O)/C=C\P(=O)(O)O | > 200 | > 200 |  |
| O=C1c2c(O)cc(O)cc2C(C2OC(CO)C(O)C(O)C2O)c2cc(CO)cc(O)c21 (centres undefined) | > 200 | > 200 |  |
| Cc1ccc2c(c1)C1(C)OC(CC(N)C1O)O2 (centres undefined) |  |  | inactive |
| Cc1c/c(=N/NC(=O)c2ccncc2)n2nc(N)sc2n1 | > 200 | > 200 |  |
| O=Cc1cn(CCCCCCCCCCCCn2cc(C=O)c3ccccc32)c2ccccc12 | > 200 | 1.2 |  |
| O=c1[nH]c(-c2ccccc2)nc2c1OCN(Cc1ccccc1)C2 | > 115 | 28.8 |  |
